Test results reported in patent US20250368628A1, “METHODS AND COMPOUNDS FOR MODULATING INHERITED GENETIC DISEASES” (Design Therapeutics, Inc., priority 2022, published 2025).

How the values were obtained:
F35T cells = assay: Foci reduction in FECD (CAG10-Cy3 FISH, foci per nucleus); format: cell-based; details: F35T cells, 48 h treatment, foci per nucleus; read-out: FECD EC50, 48 h
In short: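 Foci per nucleus were counted by imaging after overnight CAG10-Cy3 FISH at 37 °C (30% formamide, 2×SSC) with DAPI counterstain, on PFA-fixed, ethanol-permeabilized F35T cells. The cells, seeded at 5000 per well in supplemented Opti-MEM, had received 8-point compound dilutions for 48 h at 37 °C.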

[1] = tested on: Myotonic Dystrophy 1 affected patient fibroblasts (Coriel GM04602; 1600 CTG repeats); assay: DM1 foci reduction assay (EC50 assay; CAG10-Cy3 FISH, foci per nucleus); format: cell-based; details: Homo sapiens, Fibroblast; DM1 patient fibroblasts, 48 h treatment, foci per nucleus; read-out: DM1 EC50, 48 h
In short: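 Foci per nucleus counted by 20× imaging of 4 areas per well, after overnight FISH with 5 nM CAG10-Cy3 and DAPI staining of fixed, permeabilized cells. DM1 fibroblasts (GM04602, 1600 CTG) were dosed 48 h at 37 °C, 8 points, 3-fold dilutions, 3 μM top concentration.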

SMILES | EC50 (F35T cells) [nM] | EC50 [1] [nM]
CC(C)CCCN1CCC(C#CC#CC2CCN(CCOCCOCCOCCNC(=O)CCNC(=O)c3nc(NC(=O)c4cc(NC(=O)CCNC(=O)c5nc(NC(=O)CCCNC(=O)c6cc(NC(=O)c7nc(NC(=O)CCNC(=O)c8cc(NC(=O)c9nccn9C)cn8C)cn7C)cn6C)cn5C)cn4C)cn3C)CC2)CC1 [Compound B-170] | 100 to 500 | 100 to 500
CCCCCC(=O)N1CCC(C#CC#CC2CCN(CCOCCOCCOCCNC(=O)CCNC(=O)c3nc(NC(=O)c4cc(NC(=O)CCNC(=O)c5nc(NC(=O)CCCNC(=O)c6cc(NC(=O)c7nc(NC(=O)CCNC(=O)c8cc(NC(=O)c9nccn9C)cn8C)cn7C)cn6C)cn5C)cn4C)cn3C)CC2)CC1 [Compound B-171] | 100 to 500 | < 100
CCCCCCN1CCC(C#CC#CC2CCN(CCOCCOCCOCCNC(=O)CCNC(=O)c3nc(NC(=O)c4cc(NC(=O)CCNC(=O)c5nc(NC(=O)CCCNC(=O)c6cc(NC(=O)c7nc(NC(=O)CCNC(=O)c8cc(NC(=O)c9nccn9C)cn8C)cn7C)cn6C)cn5C)cn4C)cn3C)CC2)CC1 [Compound B-172] | 100 to 500 | < 100
CSCCCC(=O)N1CCC(C#CC#CC2CCN(CCOCCOCCOCCNC(=O)CCNC(=O)c3nc(NC(=O)c4cc(NC(=O)CCNC(=O)c5nc(NC(=O)CCCNC(=O)c6cc(NC(=O)c7nc(NC(=O)CCNC(=O)c8cc(NC(=O)c9nccn9C)cn8C)cn7C)cn6C)cn5C)cn4C)cn3C)CC2)CC1 [Compound B-173] | 100 to 500 | 100 to 500
CSCCCCN1CCC(C#CC#CC2CCN(CCOCCOCCOCCNC(=O)CCNC(=O)c3nc(NC(=O)c4cc(NC(=O)CCNC(=O)c5nc(NC(=O)CCCNC(=O)c6cc(NC(=O)c7nc(NC(=O)CCNC(=O)c8cc(NC(=O)c9nccn9C)cn8C)cn7C)cn6C)cn5C)cn4C)cn3C)CC2)CC1 [Compound B-174] | 100 to 500 | 100 to 500
Cn1cc(NC(=O)c2nc(NC(=O)CCNC(=O)c3cc(NC(=O)c4nccn4C)cn3C)cn2C)cc1C(=O)NCCCC(=O)Nc1cn(C)c(C(=O)NCCC(=O)Nc2cc(C(=O)Nc3cn(C)c(C(=O)NCCC(=O)NCCOCCOCCOCCN4CCC(C#CC#CC5CCN(C(=O)c6ccc(C(C)(C)C)cc6)CC5)CC4)n3)n(C)c2)n1 [Compound B-175] | 100 to 500 | 100 to 500
Cn1cc(NC(=O)c2nc(NC(=O)CCNC(=O)c3cc(NC(=O)c4nccn4C)cn3C)cn2C)cc1C(=O)NCCCC(=O)Nc1cn(C)c(C(=O)NCCC(=O)Nc2cc(C(=O)Nc3cn(C)c(C(=O)NCCC(=O)NCCCCCN4CCC(C#CC#CC5CCN(C(=O)c6ccc(C(C)(C)C)cc6)CC5)CC4)n3)n(C)c2)n1 [Compound B-177] | 100 to 500 | 500 to 1000
CC(C)CCNC(=O)CCNC(=O)c1nc(NC(=O)c2cc(NC(=O)CCNC(=O)c3nc(NC(=O)CCCNC(=O)c4cc(NC(=O)c5nc(NC(=O)CCNC(=O)c6cc(NC(=O)c7nccn7C)cn6C)cn5C)cn4C)cn3C)cn2C)cn1C [Compound B-179] | < 100 | 100 to 500
CC(C)CCCN1CCC(C#CC#CC2CCN(CCCCCNC(=O)CCNC(=O)c3nc(NC(=O)c4cc(NC(=O)CCNC(=O)c5nc(NC(=O)CCCNC(=O)c6cc(NC(=O)c7nc(NC(=O)CCNC(=O)c8cc(NC(=O)c9nccn9C)cn8C)cn7C)cn6C)cn5C)cn4C)cn3C)CC2)CC1 [Compound B-185] | 100 to 500 | > 1000
Cn1cc(NC(=O)c2nc(NC(=O)CCNC(=O)c3cc(NC(=O)c4nccn4C)cn3C)cn2C)cc1C(=O)NCCCC(=O)Nc1cn(C)c(C(=O)NCCC(=O)Nc2cc(C(=O)Nc3cn(C)c(C(=O)NCCC(=O)N4CCC(C5CN(C(=O)OC(C)(C)C)C5)CC4)n3)n(C)c2)n1 [Compound B-193] | < 100 | < 100
Cn1cc(NC(=O)c2nc(NC(=O)CCNC(=O)c3cc(NC(=O)c4nccn4C)cn3C)cn2C)cc1C(=O)NCCCC(=O)Nc1cn(C)c(C(=O)NCCC(=O)Nc2cc(C(=O)Nc3cn(C)c(C(=O)NCCc4cnc(CNC(=O)OCc5ccccc5)[nH]4)n3)n(C)c2)n1 [Compound B-202] | < 100 | 100 to 500
Cn1cc(NC(=O)c2nc(NC(=O)CCNC(=O)c3cc(NC(=O)c4nccn4C)cn3C)cn2C)cc1C(=O)NCCCC(=O)Nc1cn(C)c(C(=O)NCCC(=O)Nc2cc(C(=O)Nc3cn(C)c(C(=O)NCCCCN=[N+]=[N-])n3)n(C)c2)n1 [Compound B-203] | < 100 | < 100
Cn1cc(NC(=O)c2nc(NC(=O)CCNC(=O)c3cc(NC(=O)c4nccn4C)cn3C)cn2C)cc1C(=O)NCCCC(=O)Nc1cn(C)c(C(=O)NCCC(=O)Nc2cc(C(=O)Nc3cn(C)c(C(=O)NCCCN=C(N)N)n3)n(C)c2)n1 [Compound B-205] | < 100 | < 100
CN(C)C(=NCCCNC(=O)c1nc(NC(=O)c2cc(NC(=O)CCNC(=O)c3nc(NC(=O)CCCNC(=O)c4cc(NC(=O)c5nc(NC(=O)CCNC(=O)c6cc(NC(=O)c7nccn7C)cn6C)cn5C)cn4C)cn3C)cn2C)cn1C)N(C)C [Compound B-206] | 100 to 500 | 100 to 500
Cn1cc(NC(=O)c2nc(NC(=O)CCNC(=O)c3cc(NC(=O)c4nccn4C)cn3C)cn2C)cc1C(=O)NCCCC(=O)Nc1cn(C)c(C(=O)NCCC(=O)Nc2cc(C(=O)Nc3cn(C)c(C(=O)NCCCN4CCNCC4)n3)n(C)c2)n1 [Compound B-207] | > 1000 | 100 to 500
Cn1cc(NC(=O)c2nc(NC(=O)CCNC(=O)c3cc(NC(=O)c4nccn4C)cn3C)cn2C)cc1C(=O)NCCCC(=O)Nc1cn(C)c(C(=O)NCCC(=O)Nc2cc(C(=O)Nc3cn(C)c(C(=O)NCCCN4CCCCC4)n3)n(C)c2)n1 [Compound B-208] | 100 to 500 | 100 to 500
CCCNC(=O)c1cc(NC(=O)CCNC(=O)c2nc(NC(=O)CCCNC(=O)c3cc(NC(=O)c4nc(NC(=O)CCNC(=O)c5cc(NC(=O)c6nccn6C)cn5C)cn4C)cn3C)cn2C)cn1C [Compound B-209] | > 1000 | > 1000
Cn1cc(NC(=O)c2nc(NC(=O)CCNC(=O)c3cc(NC(=O)c4nccn4C)cn3C)cn2C)cc1C(=O)NCCCC(=O)Nc1cn(C)c(C(=O)NCCC(=O)Nc2cc(C(=O)Nc3cn(C)c(C(=O)NCCC(=O)N4CCC(C#CC#CC5CCN(C(=O)c6cccc(C(=O)O)c6)CC5)CC4)n3)n(C)c2)n1 [Compound B-224] | 500 to 1000 | > 1000
COCCOCCOCCOCCN(CCCCCn1cc(NC(=O)c2nc(NC(=O)CCNC(=O)c3cc(NC(=O)c4nccn4C)cn3C)cn2C)cc1C(=O)NCCCC(=O)Nc1cn(C)c(C(=O)NCCC(=O)Nc2cc(C(=O)Nc3cn(C)c(C(=O)NCCC(=O)NCCOCCOCCOCCN4CCC(C#CC#CC5CCN(C(=O)OC(C)(C)C)CC5)CC4)n3)n(C)c2)n1)CCOCCOCCOCCOC [Compound B-226] | 100 to 500 | 100 to 500
COCCOCCOCCOCCN(CCCCCn1cc(NC(=O)c2nc(NC(=O)CCNC(=O)c3cc(NC(=O)c4nccn4C)cn3C)cn2C)cc1C(=O)NCCCC(=O)Nc1cn(C)c(C(=O)NCCC(=O)Nc2cc(C(=O)Nc3cn(C)c(C(=O)NCCC(=O)NCCOCCOCCOCCN4CCC(C#CC#CC5CCNCC5)CC4)n3)n(C)c2)n1)CCOCCOCCOCCOC [Compound B-227] | > 1000 | > 1000
COCCOCCOCCOCCN(CCOCCOCCOCCOC)C(=O)CCCCn1cc(NC(=O)c2nc(NC(=O)CCNC(=O)c3cc(NC(=O)c4nccn4C)cn3C)cn2C)cc1C(=O)NCCCC(=O)Nc1cn(C)c(C(=O)NCCC(=O)Nc2cc(C(=O)Nc3cn(C)c(C(=O)NCCC(=O)NCCOCCOCCOCCN4CCC(C#CC#CC5CCN(C(=O)OC(C)(C)C)CC5)CC4)n3)n(C)c2)n1 [Compound B-228] | 100 to 500 | 100 to 500
COCCOCCOCCOCCN(CCOCCOCCOCCOC)C(=O)CCCCn1cc(NC(=O)c2nc(NC(=O)CCNC(=O)c3cc(NC(=O)c4nccn4C)cn3C)cn2C)cc1C(=O)NCCCC(=O)Nc1cn(C)c(C(=O)NCCC(=O)Nc2cc(C(=O)Nc3cn(C)c(C(=O)NCCC(=O)NCCOCCOCCOCCN4CCC(C#CC#CC5CCNCC5)CC4)n3)n(C)c2)n1 [Compound B-229] | > 1000 | > 1000
CCCCCNC(=O)c1nc(NC(=O)c2cc(NC(=O)CCNC(=O)c3nc(NC(=O)CCCNC(=O)c4cc(NC(=O)c5nc(NC(=O)CCNC(=O)c6cc(NC(=O)c7nccn7C)cn6C)cn5C)cn4CCCCCCN=[N+]=[N-])cn3C)cn2C)cn1C [Compound B-232] | < 100 | < 100
CN(CCCNC(=O)c1cccc(C(=O)O)c1)CCCNC(=O)c1nc(NC(=O)c2cc(NC(=O)CCNC(=O)c3nc(NC(=O)CCCNC(=O)c4cc(NC(=O)c5nc(NC(=O)CCNC(=O)c6cc(NC(=O)c7nccn7C)cn6C)cn5C)cn4CCCCCCN=[N+]=[N-])cn3C)cn2C)cn1C [Compound B-233] | 100 to 500 | 100 to 500
CCCNC(=O)c1nc(NC(=O)c2cc(NC(=O)CCNC(=O)c3nc(NC(=O)CCCNC(=O)c4cc(NC(=O)c5nc(NC(=O)CCNC(=O)c6cc(NC(=O)c7nccn7C)cn6C)cn5C)cn4CCCCCCN)cn3C)cn2C)cn1C [Compound B-234] | 100 to 500 | 500 to 1000
CCCNC(=O)c1nc(NC(=O)c2cc(NC(=O)CCNC(=O)c3nc(NC(=O)CCCNC(=O)c4cc(NC(=O)c5nc(NC(=O)CCNC(=O)c6cc(NC(=O)c7nccn7C)cn6C)cn5C)cn4CCCCCCNC(=O)CCOCCOCCOCCOCCOCCOC)cn3C)cn2C)cn1C [Compound B-235] | > 1000 | > 1000
CCCCCNC(=O)c1nc(NC(=O)c2cc(NC(=O)CCNC(=O)c3nc(NC(=O)CCCNC(=O)c4cc(NC(=O)c5nc(NC(=O)CCNC(=O)c6cc(NC(=O)c7nccn7C)cn6C)cn5C)cn4CCCCCCNC(=O)CCOCCOCCOCCOCCOCCOC)cn3C)cn2C)cn1C [Compound B-236] | 100 to 500 | 100 to 500
